This note sets out measurements from patent publication US20210198647A1, “Enhancers of Neurolysin Activity” (Texas Tech University System, priority 2018, published 2021).

The structures appear in SMILES notation. “And” between values parts separate entries of the source, which are not always exact repeats. Identical values can stand only once. Like-named read-outs stand apart in the source and are kept apart here. Marks after values point to notes of the source that are not given here. Peptide text beside a SMILES is read from it.

Series [1] is described as follows: in vitro. Particulars: mouse.
Series [2] is described as follows: Plasma and brain protein binding, rapid equilibrium dialysis (RED). It is filed as in vitro ADME, mouse. Conditions: for fu in Plasma: 500 ng/mL. Here is the method: Plasma and Brain Protein Binding: The rapid equilibrium dialysis (RED) plate and single-use inserts with a membrane MWCO of 8 kDa and sealing tapes for 96-well plates were purchased from (Pierce Biotechnology, Thermo Fisher Scientific, Waltham, Mass.). Test compounds were dissolved in dimethyl sulfoxide and then diluted to 10 μg/mL with water for binding studies. The stock solutions (10 μg/mL) were added to mouse brain homogenates or plasma. The final concentration of the compounds for the equilibrium dialysis experiment was 500 ng/mL. The RED device was assembled according to the manufacturer's instructions. A 200 μL aliquot of plasma or brain homogenate spiked with 500 ng/mL of selected compound was added to the sample chamber of insert (donor) and 400 μL of DPBS was added to the buffer chamber of the dialysis membrane (receiver). Then, the base plate was covered with a sealing tape and was incubated at 37° C. on an orbital shaker at 250 rpm for 4 hours to achieve equilibrium. Compounds were evaluated in triplicate for each experiment. At the end of incubation, equal volumes from both donor and receiver chambers were taken and placed in separate microcentrifuge for content analysis using LC-MS/MS.

The target of series [3] is T1, Neurolysin (Nln) (Rattus norvegicus, UniProt P42676).
T1 construct: polyhistidine (N); made in house; host or cells: Escherichia coli (pBAD/His vector), if the rat enzyme of b61 was used
T1 sequence (P42676 38-704): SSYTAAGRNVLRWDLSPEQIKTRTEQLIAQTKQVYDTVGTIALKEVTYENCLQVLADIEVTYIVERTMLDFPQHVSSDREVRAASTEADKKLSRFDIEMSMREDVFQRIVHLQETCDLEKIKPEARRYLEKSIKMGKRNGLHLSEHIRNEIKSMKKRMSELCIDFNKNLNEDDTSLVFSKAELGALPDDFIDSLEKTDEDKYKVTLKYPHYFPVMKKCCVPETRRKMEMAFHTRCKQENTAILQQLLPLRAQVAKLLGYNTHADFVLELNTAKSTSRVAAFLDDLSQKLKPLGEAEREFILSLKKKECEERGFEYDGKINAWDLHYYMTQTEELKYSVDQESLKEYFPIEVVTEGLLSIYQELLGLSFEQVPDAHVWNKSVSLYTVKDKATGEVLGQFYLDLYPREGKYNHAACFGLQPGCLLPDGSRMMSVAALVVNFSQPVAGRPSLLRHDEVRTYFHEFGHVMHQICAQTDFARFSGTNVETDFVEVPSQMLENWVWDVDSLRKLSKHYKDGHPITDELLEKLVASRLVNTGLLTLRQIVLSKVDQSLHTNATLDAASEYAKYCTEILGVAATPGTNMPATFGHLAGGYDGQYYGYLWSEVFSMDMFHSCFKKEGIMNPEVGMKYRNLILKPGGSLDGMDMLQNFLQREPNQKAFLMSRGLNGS
Nature of the series: Nln activation in isolated enzyme assay (A50, Amax). It is filed as biochemical. Conditions: 95% CI in parentheses; for Amax (maximum % activation achieved): 100% = normal enzyme turnover.

Series [4] concerns the target T2, angiotensin converting enzyme 2 (ACE2) (Homo sapiens, UniProt Q9BYF1).
T2 construct: purchased R & D systems 933-ZN
Kind of series: Peptidase selectivity: quenched fluorescent substrate hydrolysis by ACE2. Conditions: for effect on activity of ACE2 (in words): concentration-response up to 300 μM; for inhibition at 300 µM: 300 μM compound, read-out: inhibited activity of ACE2 by. Format: biochemical.

In series [5] the target is thimet oligopeptidase (TOP) (Homo sapiens, UniProt P52888). Nature of the series: Peptidase selectivity: quenched fluorescent substrate hydrolysis by TOP. Particulars: for effect on activity of TOP (in words): concentration-response up to 300 μM; for inhibition at 300 µM: read-out: inhibited activity of TOP by.
Chain of thimet oligopeptidase (TOP) (P52888 whole entry): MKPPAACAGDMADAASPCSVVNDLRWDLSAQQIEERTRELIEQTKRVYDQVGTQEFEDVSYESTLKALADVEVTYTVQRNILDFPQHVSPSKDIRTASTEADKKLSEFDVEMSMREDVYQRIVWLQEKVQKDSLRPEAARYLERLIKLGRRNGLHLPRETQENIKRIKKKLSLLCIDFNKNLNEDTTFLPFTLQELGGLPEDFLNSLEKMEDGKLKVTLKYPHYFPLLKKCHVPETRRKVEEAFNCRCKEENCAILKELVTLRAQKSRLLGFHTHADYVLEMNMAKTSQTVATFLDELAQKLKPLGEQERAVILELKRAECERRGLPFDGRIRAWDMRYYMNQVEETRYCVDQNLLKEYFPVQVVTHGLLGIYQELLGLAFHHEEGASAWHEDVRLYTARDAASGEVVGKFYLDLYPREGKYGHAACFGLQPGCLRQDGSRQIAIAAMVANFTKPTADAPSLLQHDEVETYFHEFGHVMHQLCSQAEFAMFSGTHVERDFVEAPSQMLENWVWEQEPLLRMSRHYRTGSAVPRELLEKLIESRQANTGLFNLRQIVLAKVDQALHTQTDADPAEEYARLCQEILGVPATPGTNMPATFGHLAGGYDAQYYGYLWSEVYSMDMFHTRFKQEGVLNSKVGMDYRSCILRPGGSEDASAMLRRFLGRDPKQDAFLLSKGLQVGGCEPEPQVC
Protocol: Activity of recombinant human TOP was assessed in the same way as for neurolysin, except that the assay was carried out in the presence of 0.1 mM dithiothreitol (37).
A short description of series [6]: In vitro metabolic stability in mouse plasma and brain homogenate. Conditions: 10% mouse brain homogenate; 500 ng/mL; 37° C.
In series [7] the test system is co-culture of primary mouse astrocytes and immortalized mouse endothelial cells (bEnd3). Nature of the series: In vitro BBB permeability, apical to basolateral transport. Format: in vitro ADME. Conditions: 10 μg/mL, 37° C. Here is the method: The permeability coefficient (Pe) was calculated from the cleared volume of each compound versus time. Values represent the mean±SD of three measurements.
Mouse primary astrocytes were isolated from the cerebral cortices of one day old pups (CD-1 mice, Charles Rivers Laboratory) following a literature method.^36 After extracting the brain, cortices were separated, minced and placed in Hank's balanced salt solution (HBSS) without calcium and magnesium, supplemented with gentamycin (10 μg/m). […] The cell suspensions were seeded into a T75 flask and the medium was changed every 3 days for 10-14 days or until reaching confluency.
For bEnd3 and astrocyte co-culture, the Transwell filters ([…] pore size, 12-well; Corning, Lowell, Mass.) were used. First, the Transwell filter was inverted and astrocytes at a density of 150,000 cells/filter were seeded onto the abluminal side of the filter and allowed to adhere for 4 hours. Then the Transwell filter was inverted back and the cells were grown for 2 days in astrocyte medium. At the end of 48 hours, bEnd3 cells at a density of 50,000 cells/filter were seeded onto the upper/luminal side of the filter and the co-culture of astrocytes and bEnd3 cells were grown for an additional 8 days. The medium for both compartments were changed every other day according to literature proceedures.^37
The apparent permeability coefficient (Pe, in cm/min) was calculated according to the cleared volume of each time point, as previously described.^38,39
Permeability measurement for each compound was run for 120 minutes. The media was removed and transwells were rinsed and incubated with HBSS buffer at 37° C. for 30 minutes. […] Concentration of compounds was determined by LC-MS/MS. Since the blank Transwell insert itself (without cells) provides resistance to the passage of buffer and compound from the donor to receiver chamber, the permeability of each compound was also measured in a blank insert and the final permeability coefficient results were calculated by considering the permeability of each compound in a blank insert.

Series [8] deals with T3, angiotensin converting enzyme (ACE) (Homo sapiens, UniProt P12821).
T3 construct: purchased R & D systems 929-ZN
T3 sequence (P12821 30-1306): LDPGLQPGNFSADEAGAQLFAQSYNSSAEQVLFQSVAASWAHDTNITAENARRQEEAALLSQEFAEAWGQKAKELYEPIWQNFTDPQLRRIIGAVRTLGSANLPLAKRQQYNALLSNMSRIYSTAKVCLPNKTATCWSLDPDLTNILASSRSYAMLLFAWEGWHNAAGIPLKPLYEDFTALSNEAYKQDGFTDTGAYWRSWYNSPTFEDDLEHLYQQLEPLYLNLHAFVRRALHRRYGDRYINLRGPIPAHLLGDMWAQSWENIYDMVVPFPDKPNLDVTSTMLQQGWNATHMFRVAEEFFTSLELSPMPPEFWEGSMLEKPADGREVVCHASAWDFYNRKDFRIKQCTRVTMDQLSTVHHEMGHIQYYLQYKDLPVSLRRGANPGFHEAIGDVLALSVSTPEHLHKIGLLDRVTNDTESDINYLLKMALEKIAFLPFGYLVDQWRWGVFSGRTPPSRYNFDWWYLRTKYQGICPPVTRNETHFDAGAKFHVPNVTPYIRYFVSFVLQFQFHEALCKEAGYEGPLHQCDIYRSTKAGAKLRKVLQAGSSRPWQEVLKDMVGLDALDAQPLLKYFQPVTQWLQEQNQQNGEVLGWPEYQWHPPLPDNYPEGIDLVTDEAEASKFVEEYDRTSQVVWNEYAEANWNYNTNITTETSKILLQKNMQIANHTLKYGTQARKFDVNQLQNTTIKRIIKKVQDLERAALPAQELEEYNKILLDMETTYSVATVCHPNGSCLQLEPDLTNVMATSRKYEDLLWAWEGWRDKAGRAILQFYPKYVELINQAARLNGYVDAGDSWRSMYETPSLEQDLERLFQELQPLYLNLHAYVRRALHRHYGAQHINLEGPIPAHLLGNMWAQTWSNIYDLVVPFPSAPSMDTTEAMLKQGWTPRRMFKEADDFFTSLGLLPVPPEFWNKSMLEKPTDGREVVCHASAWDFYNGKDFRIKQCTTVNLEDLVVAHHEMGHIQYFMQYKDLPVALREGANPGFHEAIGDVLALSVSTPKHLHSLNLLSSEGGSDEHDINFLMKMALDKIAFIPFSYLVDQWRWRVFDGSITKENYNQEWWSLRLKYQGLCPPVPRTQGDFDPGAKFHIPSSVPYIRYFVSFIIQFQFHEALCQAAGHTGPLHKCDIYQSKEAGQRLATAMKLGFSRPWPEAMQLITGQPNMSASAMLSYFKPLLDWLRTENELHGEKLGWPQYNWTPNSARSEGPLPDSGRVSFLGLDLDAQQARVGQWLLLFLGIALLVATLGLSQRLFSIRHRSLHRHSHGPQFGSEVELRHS
Kind of series: Peptidase selectivity: quenched fluorescent substrate hydrolysis by ACE. Format: biochemical. Particulars: for effect on activity of ACE (in words): concentration-response up to 300 μM; for inhibition at 300 µM: 300 μM compound, read-out: inhibited activity of ACE by.

The target of series [9] is T4, rat recombinant neurolysin (Rattus norvegicus, UniProt P42676).
T4 construct: polyhistidine (N); made in house; host or cells: Escherichia coli (pBAD/His vector)
T4 sequence (P42676 38-704): as the sequence (P42676 38-704) above
Kind of series: Enzymatic assay: QFS hydrolysis by rat recombinant neurolysin. Format: biochemical. Conditions: for Km value decreased by / Vmax increased by: 40 μM modulator; for Vmax: QFS hydrolysis; for activity at 10 µM: read-out: % activity at 10; for activity at 100 µM: read-out: % activity at (100). Here is the method:
Rat recombinant neurolysin—N-terminal polyhistidine tagged recombinant rat neurolysin was produced in Escherichia coli using a plasmid construct in pBAD/His vector system (Invitrogen) kindly provided by Dr. David W. Rodgers (University of Kentucky) (32,33). Bacterial culture was carried out in Terrific Broth in 2 L Erlenmeyer flasks using an incubator shaker (1-2400, New Brunswick Scientific). Expression was induced by addition of arabinose (1 mM final concentration), the cells were pelleted 3 h after induction and stored at −80° C. freezer. Bacterial pellets were resuspended and lysed in phosphate buffer (20 mM NaH2PO4, 500 mM NaCl, 0.05% Tween-20, pH 8.0) containing 0.25 mg/ml lysozyme, 1 mM phenylmethylsulfonyl fluoride, 0.05 mg/ml DNAse and 0.02 mg/ml RNase, followed by brief sonication. After centrifugation (40,000×g, 20 min at 4° C.) the supernatant was applied to a Ni-NTA Superflow cartridge (Qiagen), followed by washing and elution of recombinant neurolysin with phosphate buffer containing 25 and 250 mM imidazole, respectively. The eluted protein was further purified by size exclusion chromatography using a TSK gel BioAssist G2SWxl column (Tosoh bioscience) in AKTA Purifier FPLC system (GE Healthcare). […] Specific activity of recombinant neurolysin was determined by an enzymatic assay described below.
All assays were initiated by addition of QFS (100 μl assay volume in 96-well plates), and each experimental sample was present in duplicate.
In all experiments, test compounds were incubated with neurolysin for 10 min at 37° C. before addition of the substrate to start the reaction. All test compounds were dissolved in DMSO at 10 to 50 mM stock concentrations.
Statistical Analyses—statistical analyses and curve fitting were conducted with GraphPad Prism 6.0 software. For each enzymatic reaction, slope of the line which represents the initial velocity (Vo) for the reaction progress curve was calculated using the liner regression model of the software (Vo=Slope=Δ fluorescent intensity of the reaction product/Δ time). EC50 values for the modulators were calculated by fitting initial velocity values for hydrolysis of QFS by neurolysin in the presence of varying concentrations of a modulator into a nonlinear regression model for the three-parameter log(stimulator) vs. response equation [Y=Bottom+(Top−Bottom)/(1+10^((Log EC50−X)))].

In series [10] the target is T5, human recombinant neurolysin (Homo sapiens, UniProt Q9BYT8).
T5 construct: purchased R & D systems 3814-ZN
Nature of the series: Enzymatic assay: QFS hydrolysis by human recombinant neurolysin. It is filed as biochemical.
Protocol: Enzymatic assays—activity of neurolysin was measured in a continuous assay by documenting the increase in fluorescence occurring upon cleavage of a quenched fluorescent substrate (QFS) Mca-Pro-Leu-Gly-Pro-D-Lys(DNP)-OH (Bachem) (25,36). […] All assays were initiated by addition of QFS (100 μl assay volume in 96-well plates), and each experimental sample was present in duplicate.
Screening of test compounds—primary screening of top-ranked 40 compounds (received from NCI DTP) was carried out at 10 and 100 μM final assay concentrations. […] In all experiments, test compounds were incubated with neurolysin for 10 min at 37° C. before addition of the substrate to start the reaction. […]

Series [11] has as its target T6, neprilysin (NEP) (Homo sapiens, UniProt P08473).
T6 construct: purchased R & D systems 1182-ZNC
Kind of series: Peptidase selectivity: quenched fluorescent substrate hydrolysis by NEP. Format: biochemical. Particulars: 300 μM compound; read-out: inhibited activity of NEP by.

In series [12] the target is T7, mouse brain neurolysin (Mus musculus, UniProt Q91YP2).
T7 construct: P10 mouse forebrains were used for purification of native neurolysin; from tissue; host or cells: P10 mouse forebrain, soluble fraction, size-exclusion fraction
T7 sequence (Q91YP2 38-704): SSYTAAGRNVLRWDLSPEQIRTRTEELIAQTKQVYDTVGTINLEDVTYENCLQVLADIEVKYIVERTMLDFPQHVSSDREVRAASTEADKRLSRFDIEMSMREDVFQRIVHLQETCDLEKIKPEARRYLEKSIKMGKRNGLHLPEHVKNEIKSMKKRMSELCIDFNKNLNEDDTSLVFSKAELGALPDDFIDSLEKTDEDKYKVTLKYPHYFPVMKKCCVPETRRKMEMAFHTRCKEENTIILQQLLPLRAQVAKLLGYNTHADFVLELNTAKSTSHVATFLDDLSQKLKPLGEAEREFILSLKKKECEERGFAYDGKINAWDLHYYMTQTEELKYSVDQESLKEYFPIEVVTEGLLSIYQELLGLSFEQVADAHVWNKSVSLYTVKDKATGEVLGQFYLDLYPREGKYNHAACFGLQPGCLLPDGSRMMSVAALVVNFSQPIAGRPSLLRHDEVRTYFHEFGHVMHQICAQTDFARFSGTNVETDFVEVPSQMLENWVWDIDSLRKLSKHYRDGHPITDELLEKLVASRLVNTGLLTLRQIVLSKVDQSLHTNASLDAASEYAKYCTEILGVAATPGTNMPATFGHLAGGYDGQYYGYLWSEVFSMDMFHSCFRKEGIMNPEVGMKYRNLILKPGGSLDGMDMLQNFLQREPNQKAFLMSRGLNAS
Nature of the series: Enzymatic assay: QFS hydrolysis by mouse brain-purified neurolysin. Format: biochemical.
Protocol: In brief, forebrains were homogenized in hypotonic buffer (20 mM NaPO4, pH 7.2) followed by gentle sonication and centrifugation (30 min at 48,000×g at 4° C.). The resulting supernatant was filtered through a 100 kDa cut-off centrifugal filtering unit and concentrated in a 30 kDa cut-off centrifugal filtering unit (Amicon Ultra; Millipore). Neurolysin was semi-purified from the concentrate by size exclusion chromatography using a Superdex 200 Increase 10/300 GL column (GE Healthcare) in AKTA Purifier FPLC system (GE Healthcare). Elution of neurolysin was tracked by the enzymatic assay described below, and the fraction with the highest neurolysin activity was directly used for the experiments.
Enzymatic assays—activity of neurolysin was measured in a continuous assay by documenting the increase in fluorescence occurring upon cleavage of a quenched fluorescent substrate (QFS) Mca-Pro-Leu-Gly-Pro-D-Lys(DNP)-OH (Bachem) (25,36). […]
Statistical Analyses—statistical analyses and curve fitting were conducted with GraphPad Prism 6.0 software. For each enzymatic reaction, slope of the line which represents the initial velocity (Vo) for the reaction progress curve was calculated using the liner regression model of the software (Vo=Slope=Δ fluorescent intensity of the reaction product/Δ time). […]

[13] abbreviates: QFS 15 μM, absence of dynorphin A (1-13).
Where [14] appears, read: QFS 15 μM, presence of dynorphin A (1-13) 1 μM.
Where [15] appears, read: QFS 25 μM, neurolysin 0.3 nM, 100% = no compound.

T2 sequence (Q9BYF1 18-805): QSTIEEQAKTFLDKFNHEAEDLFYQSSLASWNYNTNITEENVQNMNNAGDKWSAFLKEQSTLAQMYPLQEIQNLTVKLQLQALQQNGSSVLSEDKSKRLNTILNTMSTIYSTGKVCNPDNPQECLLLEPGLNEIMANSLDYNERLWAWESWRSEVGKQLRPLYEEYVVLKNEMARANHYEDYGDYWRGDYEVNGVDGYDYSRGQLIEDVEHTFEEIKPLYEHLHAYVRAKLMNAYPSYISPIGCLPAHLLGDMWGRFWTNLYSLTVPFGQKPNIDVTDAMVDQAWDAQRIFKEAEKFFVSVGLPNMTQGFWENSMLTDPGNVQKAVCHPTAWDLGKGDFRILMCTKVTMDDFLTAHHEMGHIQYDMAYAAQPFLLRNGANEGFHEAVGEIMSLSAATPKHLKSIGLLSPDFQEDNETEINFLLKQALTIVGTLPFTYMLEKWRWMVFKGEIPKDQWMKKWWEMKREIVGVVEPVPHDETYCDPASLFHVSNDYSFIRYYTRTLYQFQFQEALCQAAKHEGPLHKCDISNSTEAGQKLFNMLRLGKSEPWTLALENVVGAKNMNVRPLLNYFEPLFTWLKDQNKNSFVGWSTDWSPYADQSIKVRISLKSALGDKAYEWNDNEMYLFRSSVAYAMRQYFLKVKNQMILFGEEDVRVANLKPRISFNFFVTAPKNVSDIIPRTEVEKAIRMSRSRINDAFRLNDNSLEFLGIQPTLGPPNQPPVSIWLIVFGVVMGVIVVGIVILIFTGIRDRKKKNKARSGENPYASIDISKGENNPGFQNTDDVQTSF

In [1] (plasma), `N[C@@H](Cc1c[nH]cn1)C(=O)N[C@@H](Cc1c[nH]c2ccccc12)C(=O)O` [Compound 4, Histidine-tryptophan] displayed a half-life at 500 ng/mL of more than 5 h. In addition, in series [2] (mouse plasma), the “fu in Plasma” value was found to be 0.93 ± 0.13.
Regarding `N[C@@H](Cc1c[nH]cn1)C(=O)NCc1cccc2ccccc12` [Compound 10c, (S)-2-amino-3-(1H-imidazol-4-yl)-N-(naphthalen-1-ylmethyl)propanamide], the “Amax (maximum % activation achieved)” value in [3] is given as 264 (256.3 to 272.6) %. Besides, the “effect on activity of ACE2 (in words)” value in series [4] is reported as “no inhibition up to 300 μM”. The “effect on activity of TOP (in words)” value in series [5] is given as “No appreciable inhibition”. In series [6], the “t1/2 Mouse Brain” value is 1.33 h and 1.34 ± 0.033 h. For the same molecule, in [7], the “permeability coefficient (Pe)” value is given as 1.09±0.09×10^−3 cm/min. Moreover, the “effect on activity of ACE (in words)” value in [8] is reported as “no inhibition at the maximum concentration tested”. Further, the fraction unbound at 4 h, 500 ng/mL in series [2] (mouse brain homogenate, read-out: fu in Brain) came to 0.052 ± 0.003; in series [2] (mouse plasma, read-out: fu in Plasma), 0.45 ± 0.013.
Take `N[C@@H](Cc1c[nH]cn1)C(=O)N[C@@H](Cc1ccc(O)cc1)C(=O)O` [NlnA#1, L-histidyl-L-tyrosine] (H-His-Tyr-OH): the inhibition at 300 µM in series [4] came out at 13.4 ± 2.9%; in series [5] it was 25.9 ± 0.7%; in [11], 2.9 ± 4.7%; in series [8] it was 22.6 ± 2.5%. Moreover, the “Km value decreased by” value in series [9] was approximately 43%. Further, the “Vmax increased by” value in series [9] is listed as approximately 29%. The Emax turned out to be 292% in [9] (setting [13]); 238% in [9] (setting [14]); 235% in [9] (setting [15]); 204% in series [10]; 190% in [12]. Moreover, the results for the Vmax in series [9] (rNln + 40 μM modulator) and in series [9] (rNln + 100 μM modulator) were 124.2*** FLU/ng protein per min and 164.8*** FLU/ng protein per min, respectively. Further, in [9], the activity at 10 µM turned out to be 121%. Moreover, the activity at 100 µM in series [9] was 226%.
Take `NC(Cc1c[nH]cn1)C(=O)NC(Cc1c[nH]cn1)C(=O)O` (mixture of isomers) [NlnA#2, D,L-histidyl-D,L-histidine]: the inhibition at 300 µM in series [4] was 10.9 ± 2.9%; in [5], 15.6 ± 2.6%; in [11] it was 1.6 ± 2%; in [8] it was 12.2 ± 1.8%. The “Km value decreased by” value in [9] was approximately 42.4%. In addition, the “Vmax increased by” value in series [9] is approximately 16.5%. In addition, the Emax came to 255% in series [9] (setting [13]); 198% in [9] (setting [14]); 203% in series [9] (setting [15]); 214% in series [10]; 258% in [12]. Further, the figures for the Vmax in series [9] (rNln + 40 μM modulator) and in [9] (rNln + 100 μM modulator) were 112.5* FLU/ng protein per min and 148.2*** FLU/ng protein per min, respectively. Further, in series [9], the activity at 10 µM came out at 122%. In addition, the activity at 100 µM in series [9] was 206%.
For the molecule `N[C@@H](Cc1c[nH]cn1)C(=O)NCCc1c[nH]c2ccccc12` [Compound 9d, (S)—N-(2-(1H-indol-3-yl)ethyl)-2-amino-3-(1H-imidazol-4-yl)propanamide], the “Amax (maximum % activation achieved)” value in series [3] is on record as 259 (240.7 to 281) %. In addition, in series [3] (A50 (concentration required to activate Nln by 50%)), the EC50 was 6.1 µM. Moreover, in [4], the “effect on activity of ACE2 (in words)” value was “showed inhibition of ACE2 at high concentrations”. For the same molecule, the “effect on activity of TOP (in words)” value in [5] was “only exhibited inhibition at concentrations approaching 300 μM”. Besides, the “t1/2 Mouse Brain” value in series [6] is 1.1 h and 1.09 ± 0.07 h. In [1] (mouse plasma), the half-life at 500 ng/mL is more than 16.7 h. Further, the “permeability coefficient (Pe)” value in [7] is reported as 1.07±0.12×10^−3 cm/min. For the same molecule, the “effect on activity of ACE (in words)” value in [8] is given as “show inhibition of ACE at high concentration”. Moreover, the “fu in Plasma” value in [2] (mouse plasma) was 0.63 ± 0.076.
Regarding `N[C@@H](Cc1c[nH]cn1)C(=O)Nc1cccc2cccnc12` [Compound 11a, (S)-2-amino-3-(1H-imidazol-4-yl)-N-(quinolin-8-yl)propanamide], the “Amax (maximum % activation achieved)” value in series [3] was 252.4 (231.4 to 274.9) %. Also, the “effect on activity of ACE2 (in words)” value in [4] was “showed inhibition of ACE2 at high concentrations”. Moreover, the “permeability coefficient (Pe)” value in [7] was 1.14±0.02×10^−3 cm/min. In series [8], the “effect on activity of ACE (in words)” value is “show inhibition of ACE at high concentration”.
